Measured values published in patent US4362743A, “Antibacterial monic acid esters” (Beecham Group Limited, priority 1980, dated 1982).
In brackets after ≈: the same amount, converted by molar mass. Read-outs that look alike come from different tables or passages of the source.

Columns and labels:
Format in all cases: cell-based
M. suipneumoniae TAM 6N = assay: Anti-mycoplasmal activity in vitro MIC; settings: Mesomycoplasma hyopneumoniae, TAM6N, 144 h
M. suipneumoniae JF 435 = assay: Anti-mycoplasmal activity in vitro MIC; settings: Mesomycoplasma hyopneumoniae, JF435, 144 h
M. suipneumoniae HK (2) = assay: Anti-mycoplasmal activity in vitro MIC; settings: Mesomycoplasma hyopneumoniae, 144 h
M. suipneumoniae UCD 1 = assay: Anti-mycoplasmal activity in vitro MIC; settings: Mesomycoplasma hyopneumoniae, UCD1, 144 h
[1] = test system: M. suipneumoniae ATCC 25095; assay: Anti-mycoplasmal activity in vitro MIC; settings: Mesomycoplasma hyopneumoniae, ATCC25095, 144 h
M. gallisepticum S6 = assay: Anti-mycoplasmal activity in vitro MIC; settings: Mycoplasmoides gallisepticum, 144 h; M. gallisepticum S6; Friis broth, 0.9% agarose, 6 days 37° C.; read-out: M.I.C.
M. dispar NCTC 10125 = assay: Anti-mycoplasmal activity in vitro MIC; settings: 144 h
[2] = test system: M. hyosynoviae ATCC 25591; assay: Anti-mycoplasmal activity in vitro MIC; settings: 144 h
Bord. brochiasetpica B09 = assay: Veterinary bacteria MIC; settings: Diagnostic Sensitivity Test Agar, 18 hours 37° C.
Procedure: (§1) The values were determined using a two fold serial dilutions in Diagnostic Sensitivity Test Agar with an inoculum of 10^4 organisms and incubation for 18 hours at 37° C.

S. typhimurium S18 = assay: Veterinary bacteria MIC; settings: Salmonella enterica
Procedure: as §1

S. dublin S7 = assay: Veterinary bacteria MIC; settings: Salmonella enterica
Procedure: as §1

[3] = test system: Staph. aureus 152 (pen. sens); assay: Veterinary bacteria MIC; settings: Staphylococcus aureus, Diagnostic Sensitivity Test Agar, 18 hours 37° C.
Procedure: as §1

Strep. dysgalactiae SPD1 = assay: Veterinary bacteria MIC; settings: Streptococcus dysgalactiae, Diagnostic Sensitivity Test Agar, 18 hours 37° C.
Procedure: as §1

[4] = test system: Erysipelothrix rhusiopathiae NCTC 8163; assay: Veterinary bacteria MIC; settings: NCTC8163; Erysipelothrix rhusiopathiae NCTC 8163; Diagnostic Sensitivity Test Agar, 18 hours 37° C.; read-out: M.I.C.
Procedure: as §1

[5] = test system: Staph. aureus B4 (pen. resistant); assay: Veterinary bacteria MIC; settings: Staphylococcus aureus, Diagnostic Sensitivity Test Agar, 18 hours 37° C.
Procedure: as §1

E. coli El = assay: Veterinary bacteria MIC; settings: Escherichia coli
Procedure: as §1

Past. multocida PA2 = assay: Veterinary bacteria MIC; settings: Pasteurella multocida; Past. multocida PA2; Diagnostic Sensitivity Test Agar, 18 hours 37° C.; read-out: M.I.C.
Procedure: as §1

Past. multocida PA1 = assay: Veterinary bacteria MIC; settings: Pasteurella multocida, Diagnostic Sensitivity Test Agar, 18 hours 37° C.
Procedure: as §1

Strep. agalactiae SPA1 = assay: Veterinary bacteria MIC; settings: Streptococcus agalactiae, Diagnostic Sensitivity Test Agar, 18 hours 37° C.
Procedure: as §1

[6] = test system: Corynebacterium pyogenes CY1; assay: Veterinary bacteria MIC; settings: Trueperella pyogenes
Procedure: as §1

Past. haemolytica PA5 = assay: Veterinary bacteria MIC; settings: Mannheimia haemolytica; Past. haemolytica PA5; Diagnostic Sensitivity Test Agar, 18 hours 37° C.; read-out: M.I.C.
Procedure: as §1

Strep. uberis SPU1 = assay: Veterinary bacteria MIC; settings: Streptococcus uberis, Diagnostic Sensitivity Test Agar, 18 hours 37° C.
Procedure: as §1

Bord. bronchiseptica B08 = assay: Veterinary bacteria MIC; settings: Bordetella bronchiseptica; Bord. bronchiseptica B08; Diagnostic Sensitivity Test Agar, 18 hours 37° C.; read-out: M.I.C.
Procedure: as §1

E. coli NCTC 10418 = assay: Veterinary bacteria MIC; settings: Escherichia coli
Procedure: as §1

[7] = test system: Strep. suis (Group D) SPS11; assay: Veterinary bacteria MIC; settings: Streptococcus suis
Procedure: as §1

Staph. aureus Oxford = assay: Veterinary bacteria MIC; settings: Staphylococcus aureus, Diagnostic Sensitivity Test Agar, 18 hours 37° C.
Procedure: as §1

M. suipneumoniae NB12 = assay: Anti-mycoplasmal activity in vitro MIC; settings: Mesomycoplasma hyopneumoniae
M. suipneumoniae Str. 11 = assay: Anti-mycoplasmal activity in vitro MIC; settings: Mesomycoplasma hyopneumoniae
[8] = test system: M. suipneumoniae NCTC 10110; assay: Anti-mycoplasmal activity in vitro MIC; settings: Mesomycoplasma hyopneumoniae, NCTC10110, 144 h

## C/C(=C\C(=O)OCCCC(=NNC(N)=O)c1ccccc1)C[C@@H]1OC[C@H](C[C@@H]2O[C@H]2[C@@H](C)[C@H](C)O)[C@@H](O)[C@H]1O [Example 2, 4-Phenyl-4-semicarbazonobutyl monate A]
M. suipneumoniae TAM 6N
  MIC: 0.5 µg/mL (≈ 0.913 µM)
M. suipneumoniae JF 435
  MIC: 0.5 µg/mL (≈ 0.913 µM)
M. suipneumoniae HK (2)
  MIC: 0.5 µg/mL (≈ 0.913 µM)
M. suipneumoniae UCD 1
  MIC: 0.5 µg/mL (≈ 0.913 µM)
[1]
  MIC: 0.25 µg/mL (≈ 0.456 µM)
M. gallisepticum S6
  MIC: 10 µg/mL (≈ 18.3 µM)
M. dispar NCTC 10125
  MIC: 0.1 µg/mL (≈ 0.183 µM)
[2]
  MIC: 0.5 µg/mL (≈ 0.913 µM)
Bord. brochiasetpica B09
  MIC: 80 µg/mL (≈ 146 µM)
S. typhimurium S18; S. typhimurium S18, Diagnostic Sensitivity Test Agar, 18 hours 37° C., read-out: M.I.C.
  MIC: > 80 µg/mL
S. dublin S7; S. dublin S7, Diagnostic Sensitivity Test Agar, 18 hours 37° C., read-out: M.I.C.
  MIC: > 80 µg/mL
[3]
  MIC: 5 µg/mL (≈ 9.13 µM)
Strep. dysgalactiae SPD1
  MIC: 0.625 µg/mL (≈ 1.14 µM)
[4]
  MIC: 10 µg/mL (≈ 18.3 µM)
[5]
  MIC: 10 µg/mL (≈ 18.3 µM)
E. coli El; E. coli El, Diagnostic Sensitivity Test Agar, 18 hours 37° C., read-out: M.I.C.
  MIC: > 80 µg/mL
Past. multocida PA2
  MIC: 5 µg/mL (≈ 9.13 µM)
Past. multocida PA1
  MIC: 20 µg/mL (≈ 36.5 µM)
Strep. agalactiae SPA1
  MIC: 2.5 µg/mL (≈ 4.56 µM)
[6]; Corynebacterium pyogenes CY1, Diagnostic Sensitivity Test Agar, 18 hours 37° C., read-out: M.I.C.
  MIC: > 80 µg/mL
Past. haemolytica PA5
  MIC: 80 µg/mL (≈ 146 µM)
Strep. uberis SPU1
  MIC: 0.625 µg/mL (≈ 1.14 µM)
Bord. bronchiseptica B08
  MIC: > 80 µg/mL
E. coli NCTC 10418; NCTC10418, E. coli NCTC 10418, Diagnostic Sensitivity Test Agar, 18 hours 37° C., read-out: M.I.C.
  MIC: > 80 µg/mL
[7]; Strep. suis (Group D) SPS11, Diagnostic Sensitivity Test Agar, 18 hours 37° C., read-out: M.I.C.
  MIC: 10 µg/mL (≈ 18.3 µM)
Staph. aureus Oxford
  MIC: 5 µg/mL (≈ 9.13 µM)
M. suipneumoniae NB12; NB12, 144 h
  MIC: 0.25 µg/mL (≈ 0.456 µM)
M. suipneumoniae Str. 11; STR.11, 144 h
  MIC: 0.25 µg/mL (≈ 0.456 µM)
[8]
  MIC: 0.5 µg/mL (≈ 0.913 µM)

## C/C(=C\C(=O)OCCCC(=NO)c1ccccc1)C[C@@H]1OC[C@H](C[C@@H]2O[C@H]2[C@@H](C)[C@H](C)O)[C@@H](O)[C@H]1O [Example 1, 4-Hydroxyimino-4-phenylbutyl monate A]
M. suipneumoniae TAM 6N; M. suipneumoniae TAM 6N, Friis broth, 0.9% agarose, 6 days 37° C., read-out: M.I.C.
  MIC: 0.25 µg/mL (≈ 0.494 µM)
M. suipneumoniae JF 435; M. suipneumoniae JF 435, Friis broth, 0.9% agarose, 6 days 37° C., read-out: M.I.C.
  MIC: 0.25 µg/mL (≈ 0.494 µM)
M. suipneumoniae HK (2); M. suipneumoniae HK (2), Friis broth, 0.9% agarose, 6 days 37° C., read-out: M.I.C.
  MIC: 0.25 µg/mL (≈ 0.494 µM)
M. suipneumoniae UCD 1; M. suipneumoniae UCD 1, Friis broth, 0.9% agarose, 6 days 37° C., read-out: M.I.C.
  MIC: 0.25 µg/mL (≈ 0.494 µM)
[1]; M. suipneumoniae ATCC 25095, Friis broth, 0.9% agarose, 6 days 37° C., read-out: M.I.C.
  MIC: 0.25 µg/mL (≈ 0.494 µM)
M. gallisepticum S6
  MIC: 10 µg/mL (≈ 19.8 µM)
M. dispar NCTC 10125
  MIC: 0.05 µg/mL (≈ 0.0989 µM)
[2]; M. hyosynoviae ATCC 25591, Friis broth, 0.9% agarose, 6 days 37° C., read-out: M.I.C.
  MIC: 0.25 µg/mL (≈ 0.494 µM)
Bord. brochiasetpica B09
  MIC: 20 µg/mL (≈ 39.6 µM)
S. typhimurium S18; TYPHIMURIUM, 18 h
  MIC: > 80 µg/mL
S. dublin S7; S7, 18 h
  MIC: > 80 µg/mL
[3]
  MIC: 0.625 µg/mL (≈ 1.24 µM)
Strep. dysgalactiae SPD1
  MIC: 0.625 µg/mL (≈ 1.24 µM)
[4]
  MIC: 20 µg/mL (≈ 39.6 µM)
[5]
  MIC: 0.625 µg/mL (≈ 1.24 µM)
E. coli El; 18 h
  MIC: > 80 µg/mL
Past. multocida PA2
  MIC: 0.625 µg/mL (≈ 1.24 µM)
Past. multocida PA1
  MIC: 2.5 µg/mL (≈ 4.94 µM)
Strep. agalactiae SPA1
  MIC: 0.625 µg/mL (≈ 1.24 µM)
[6]; CY1, 18 h
  MIC: > 80 µg/mL
Past. haemolytica PA5
  MIC: 10 µg/mL (≈ 19.8 µM)
Strep. uberis SPU1
  MIC: 0.156 µg/mL (≈ 0.309 µM)
Bord. bronchiseptica B08
  MIC: 40 µg/mL (≈ 79.1 µM)
E. coli NCTC 10418; NCTC10418, 18 h
  MIC: > 80 µg/mL
[7]; 18 h
  MIC: 5 µg/mL (≈ 9.89 µM)
Staph. aureus Oxford
  MIC: 0.625 µg/mL (≈ 1.24 µM)
M. suipneumoniae NB12; 144 h, M. suipneumoniae NB12, Friis broth, 0.9% agarose, 6 days 37° C., read-out: M.I.C.
  MIC: 0.1 µg/mL (≈ 0.198 µM)
M. suipneumoniae Str. 11; 144 h, M. suipneumoniae Str. 11, Friis broth, 0.9% agarose, 6 days 37° C., read-out: M.I.C.
  MIC: 0.1 µg/mL (≈ 0.198 µM)
[8]; M. suipneumoniae NCTC 10110, Friis broth, 0.9% agarose, 6 days 37° C., read-out: M.I.C.
  MIC: 0.25 µg/mL (≈ 0.494 µM)
